Like-named read-outs stand apart in the source and are kept apart here. Bounds are passed on as bounds.

The test system of one data set is fleas and ticks. As to conditions: topical application; cited from earlier work.
The conditions of data set [1]: administered systemically, animals; cited from earlier work.
A further data set has as its system fleas. Put plainly: Activity against fleas in dogs (infestation with about 100 fleas, comb counts about 48 hours later). The format is in vivo. The procedure:
(§1) Beagle dogs of both sexes 21 to 31 months old and weighing from 10 to 16 kg were used. Groups of three dogs each were treated with the same active compound in different formulations as follows: • Group 1: topical formulation containing 10% w/v of active compound, 5% w/v polyvinylpyrrolidone 30 and ethanol qs to 100%v/v dosed at 5 mg/kg. • Group 2: long acting parenteral formulation containing 10% w/v of the active compound, 25% w/v of sucrose octaacetate, 1% w/v of propylene glycol octanoate decanoate and triacetin qs 100% v/v dosed subcutaneously at 10 mg/kg. • Group 3: long acting parenteral formulation containing 10% w/v active compound, 10% w/v poly(DL-lactide/glycolide)75/25, and qs 100% v/v 1:1 glycerol formal/triacetin dosed at 10 mg/kg subcutaneously. • Control group of three untreated dogs was included.
Treatments were administered once on Day 0. On Day 1 animals all animals were infested with approximately 100 fleas. Animals were combed and fleas counted and removed approximately 48 hours after infestation. Animals were infested on days 12 and 26, and combed and fleas counted and removed approximately 48 hours after infestation. Infestation/counting were repeated approximately monthly until efficacy fell below 80% [% efficacy = (1 - (mean flea count of treatment group ö mean flea count of control group) x 100).

Data set [2] can be described thus: Observation for emesis (vomition) in treated dogs. As to conditions: 10 mg/kg subcutaneously. It counts as in vivo, Beagle dogs. The procedure:
as §1
(§2) Blood samples were collected from animals in treatment groups on Day 0 at 1, 2, 3 and 6 hours after treatment, on Day 1 at 24 hours after treatment, and whenever emesis was observed. Blood samples were also collected when flea counts were determined. Animals were observed hourly for 6 hours post treatment for emesis.

The nature of data set [3]: Plasma drug level in treated dogs. The format is in vivo, Beagle dogs. Conditions: dog, sc, group 2: sucrose octaacetate/triacetin formulation, 10 mg/kg subcutaneously, read-out: peak plasma levels. The procedure: as §1, §2

On to `N#Cc1nn(-c2c(Cl)cc(C(F)(F)F)cc2Cl)c(N)c1[S+]([O-])C(F)(F)F` (stereo not drawn) [Fipronil, fipronil], for which the duration of efficacy result in the data set with fleas and ticks is on record as “not more than three months”. Moreover, in data set [1], the vomition entry is “known to cause vomition”.
For the compound `N#Cc1nn(-c2c(Cl)cc(S(F)(F)(F)(F)F)cc2Cl)c(N)c1SC(F)(F)F` [active compound], the efficacy against fleas in the data set on fleas (group 1: topical formulation, 10% w/v active compound, 5 mg/kg once on Day 0, dogs, held for between 55 and 90 days) is reported as above 90%; with fleas (group 2: long acting parenteral formulation (sucrose octaacetate/triacetin), 10 mg/kg subcutaneously once, dogs, maintained for up to between 5 and 6 months), above 90%; with fleas (group 3: long acting parenteral formulation (poly(DL-lactide/glycolide)75/25, 1:1 glycerol formal/triacetin), 10 mg/kg subcutaneously once, dogs, for >12 months) it was around 100%. Besides, in the data set with fleas (group 3: long acting parenteral formulation (poly(DL-lactide/glycolide)75/25, 1:1 glycerol formal/triacetin), 10 mg/kg subcutaneously once, dogs), the “duration of close to 100% efficacy against fleas” value is given as above 12 months. The vomition result in data set [2] (group 2: sucrose octaacetate/triacetin formulation) is reported as “Vomition occurred”; in data set [2] (group 3: poly(DL-lactide/glycolide) formulation), “No vomition was observed”. Moreover, the Cmax in data set [3] is above 100 ng/mL.

The values above are taken from patent publication EP1063992B1, “SULFURPENTA FLUOROPHENYL PYRAZOLES FOR CONTROLLING ECTOPARASITIC INFESTATIONS” (MERCK & CO., INC., priority 1998, dated 1999).
